Laboratory results: patent publication US20050020668A1, “Combination comprising S-[2-([[1-(2-ethylbutyl)cyclohexyl] carbonyl]amino)phenyl] 2-methylpropanethioate and an HMG CoA reductase inhibitor” (Japan Tobacco Inc., priority 2003, published 2005)
Marks after values point to notes of the source that are not given here.

Experiments:
[1] = tested on: male Japanese white rabbits receiving a high-cholesterol diet; test: Atherogenic index in rabbits receiving a high-cholesterol diet; type: in vivo, rabbit; details: control group = 100%, in 0.2% cholesterol diet for 7 days: Compound I 0.5%
Experimental: Prior to commencement of the study, male Japanese white rabbits (KITAYAMA LABES Co., Ltd.) received a normal diet (RC-4, manufactured by Oriental Bio-Service Inc.) (Time Period 1) and water ad libitum. For preliminary feeding, male Japanese white rabbits were provided with a high cholesterol diet comprising 100 g/day per rabbit of RC-4 containing 0.2% cholesterol (manufactured by Oriental Bio-Service Inc.) for 4 weeks (Time Period 2). […] For 7 days (Time Period 3), each group was administered a high cholesterol diet comprising 100 g/day per rabbit of RC-4 containing 0.2% cholesterol and one of the following: • (1) Control (no additional components) • (2) Compound I (0.5%) • (3) Simvastatin (extracted and purified from LipovasTM Tablets-5, Banyu Pharmaceutical Co.) (0.075%) • (4) Atorvastatin calcium trihydrate (extracted and purified from LipitorTM Tablets-10, Pfizer Inc.) (0.075%) • (5) Rosuvastatin calcium (extracted and purified from CrestorTM Tablets, Astra Zeneca) (0.025%) • (6) Compound I (0.5%)+simvastatin (0.075%) • (7) Compound I (0.5%)+atorvastatin calcium trihydrate (0.075%) • (8) Compound I (0.5%)+rosuvastatin calcium (0.025%) […] Atherogenic index was calculated as follows: [(total cholesterol content-HDL cholesterol content)/HDL cholesterol content]. […] A similar experiment was conducted to evaluate the effect of the administration of Compound I and pravastatin sodium ([…] Ltd.) on 12-week old male Japanese white rabbits receiving a high-cholesterol diet.

[2] = target: T1, CETP (Homo sapiens, UniProt P11597); test: Clinical study: Compound I added to pravastatin sodium therapy, CETP activity in blood samples; type: in vivo; details: for Mean percent change of CETP activity from levels before administration of Compound I: Visit 5 or 6 vs average of Visits 3 and 4, per protocol; for Decrease in CETP activity relative to levels achieved by pravastatin sodium alone: patients receiving pravastatin sodium therapy
T1 construct: from tissue; host or cells: blood (plasma) samples of hyperlipidemic patients
T1 sequence (P11597 18-493): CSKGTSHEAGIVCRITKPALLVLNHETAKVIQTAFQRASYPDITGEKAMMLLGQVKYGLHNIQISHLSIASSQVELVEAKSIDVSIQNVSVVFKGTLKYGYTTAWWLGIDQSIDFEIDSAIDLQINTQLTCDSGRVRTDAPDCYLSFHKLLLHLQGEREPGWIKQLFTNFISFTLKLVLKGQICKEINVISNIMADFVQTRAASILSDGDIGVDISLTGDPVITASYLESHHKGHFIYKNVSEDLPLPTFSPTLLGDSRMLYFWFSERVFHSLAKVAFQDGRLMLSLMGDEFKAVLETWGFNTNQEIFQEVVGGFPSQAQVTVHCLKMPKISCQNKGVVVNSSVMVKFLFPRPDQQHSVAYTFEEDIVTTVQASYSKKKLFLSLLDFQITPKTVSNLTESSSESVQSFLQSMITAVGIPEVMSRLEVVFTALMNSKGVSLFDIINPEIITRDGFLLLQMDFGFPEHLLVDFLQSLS
Experimental: CETP activity is measured essentially as described in Tollefson et al., Methods Enzymol., 129, 797-816 (1986), and Kato et al., J. Biol. Chem., 264, 4082-4087 (1989). Preferably, the CETP activity at 2 weeks (or 4 weeks, 8 weeks, 12 weeks, or six months) post-treatment initiation is decreased by about 5% or more relative to CETP activity pretreatment (e.g., about 7.5% or more, about 10% or more, about 15% or more, about 20% or more, about 25% or more, about 30% or more, about 35% or more, about 40% or more, about 45% or more, about 50% or more, about 55% or more, about 60% or more, or about 65% or more).
(§1) This example describes a multi-center, randomized, double-blind, placebo-controlled, parallel group study designed to evaluate the therapeutic effect of the combination of S-[2-([[1-(2-ethylbutyl)cyclohexyl]carbonyl]amino)phenyl]2-methylpropanethioate (Compound I) and pravastatin sodium in patients with hyperlipidemia.
(§2) The total study duration was 16 weeks, which consisted of three periods. During Period 1, the first 8 weeks of the study, 40 mg of pravastatin sodium was taken once daily at bedtime by all enrolled patients. Patients were then randomized to receive placebo or 300 mg or 600 mg of Compound I once daily following breakfast for Period 2, the next 4-week period, in addition to the continued pravastatin sodium treatment. During Period 3, the last 4 weeks of the study, pravastatin sodium was administered alone.
Blood samples were taken at Visit 1 (−10 weeks relative to commencement of treatment with Compound I or placebo) to determine eligibility, and at Visit 2 (−8 weeks; commencement of treatment with pravastatin sodium), Visit 3 (−2 weeks), Visit 4 (commencement of treatment with Compound I or placebo), Visit 5 (+2 weeks after commencement of treatment with Compound I or placebo), Visit 6 (+4 weeks; end of treatment with Compound I or placebo), and Visit 7 (+8 weeks; end of treatment with pravastatin sodium). Each blood sample was tested for levels of lipid parameters (e.g., total cholesterol, triglycerides, HDL-C, LDL-C), CETP activity and mass, the plasma concentration of Compound I (trough level), as well as laboratory safety parameters (e.g., urinalysis, biochemistry, and hematology). […]
Table 2 describes the percent change in HDL-C, LDL-C, TC/HDL-C ratio, LDL-C/HDL-C ratio, and CETP activity from the values of patients receiving pravastatin sodium therapy (average of Visit 3 and 4 values) to the values following administration of Compound I or placebo and pravastatin sodium (Visit 5 or 6). P values were determined by comparing the groups administered Compound I to the placebo group using an ANOVA model with percent change as the dependent variable and treatment and center as the fixed effects. […]

[3] = tested on: patients with type II hyperlipidemia; test: Clinical study: Compound I added to pravastatin sodium therapy, lipid parameters; type: in vivo, human; details: for Mean percent change of HDL-C from levels before administration of Compound I / Mean percent change of LDL-C from levels before administration of Compound I / Mean percent change of LDL-C/HDL-C ratio from levels before administration of Compound I / Mean percent change of TC/HDL-C ratio from levels before administration of Compound I: Visit 5 or 6 vs average of Visits 3 and 4, per protocol
Excerpt: as §1
Approximately 200 patients with type II hyperlipidemia were enrolled in the study to ensure that about 150 patients (about 50 patients per treatment group) completed the study. The patients met the following criteria: • (i) LDL-C>4.0 mmol/L (160 mg/dL), • (ii) HDL-C<1.6 mmol/L (60 mg/dL), • (iii) triglycerides<4.5 mmol/L (400 mg/dL), and • (iv) age 18-65 years.
as §2
Each pravastatin sodium tablet comprised 40 mg of pravastatin sodium that was provided as a branded commercial product (Selektine™, Bristol-Myers Squibb B.V.). Each Compound I tablet contained 300 mg of Compound I and was supplied as a white oval tablet that is identical in appearance to the placebo tablet. The uncoated white tablets comprising Compound I were prepared using standard tableting procedures. The tablets comprised 300 mg of Compound I, 18 mg of hydroxypropylmethyl cellulose 2910 as a binder, 18 mg of talc and 1.2 mg of magnesium stearate as lubricants, and 119.8 mg of crospovidone and 90 mg of low-substituted hydroxypropyl cellulose as disintegrants.
All patients received 2 uncoated white tablets, such that each patient received either (a) one 300 mg Compound I tablet and one placebo tablet, (b) two 300 mg Compound I tablets, or (c) two placebo tablets during Period 2.
Blood samples were taken at Visit 1 (−10 weeks relative to commencement of treatment with Compound I or placebo) to determine eligibility, and at Visit 2 (−8 weeks; commencement of treatment with pravastatin sodium), Visit 3 (−2 weeks), Visit 4 (commencement of treatment with Compound I or placebo), Visit 5 (+2 weeks after commencement of treatment with Compound I or placebo), Visit 6 (+4 weeks; end of treatment with Compound I or placebo), and Visit 7 (+8 weeks; end of treatment with pravastatin sodium). Each blood sample was tested for levels of lipid parameters (e.g., total cholesterol, triglycerides, HDL-C, LDL-C), CETP activity and mass, the plasma concentration of Compound I (trough level), as well as laboratory safety parameters (e.g., urinalysis, biochemistry, and hematology).
Efficacy analyses included both descriptive summary and statistical modeling, such as analysis of variance (ANOVA) or analysis of covariance (ANCOVA). The descriptive summary included frequencies and percentages for categorical variables and statistics such as the number of available observations, mean, median, standard deviation, minimum, and maximum for all variables.
To determine the effect of the administration of Compound I on a patient receiving HMG CoA reductase inhibitor therapy, the mean values of HDL-C, LDL-C, TC/HDL-C ratio, LDL-C/HDL-C ratio, and CETP activity before administration of Compound I (average of values at Visits 3 and 4) and after the administration of Compound I (Visit 5 or 6) were compared. An ANOVA model containing treatment and center effects was used. […]

[4] = Table 4 experiment, pravastatin sodium 0.075%
[5] = Table 3 experiment, simvastatin 0.075%, atorvastatin calcium trihydrate 0.075%, rosuvastatin calcium 0.025%, blood 8 hours after feeding on Day 7
[6] = 300 mg Compound I once daily + 40 mg pravastatin sodium, n = 45
[7] = 600 mg Compound I once daily + 40 mg pravastatin sodium, n = 42
[8] = 300 mg treatment group, patients receiving pravastatin sodium therapy
[9] = 600 mg treatment group, patients receiving pravastatin sodium therapy

CC[C@H](C)C(=O)O[C@H]1C[C@H](O)C=C2C=C[C@H](C)[C@H](CC[C@@H](O)C[C@@H](O)CC(=O)O)[C@H]21 [Pravastatin sodium]
Atherogenic Index (%) [1, 4]: 40%

CC(C)c1c(C(=O)Nc2ccccc2)c(-c2ccccc2)c(-c2ccc(F)cc2)n1CC[C@@H](O)C[C@@H](O)CC(=O)O [Atorvastatin calcium trihydrate]
Atherogenic Index (%) [1, 5]: 49%

CCC(CC)CC1(C(=O)Nc2ccccc2SC(=O)C(C)C)CCCCC1 [Compound I, S-[2-([[1-(2-ethylbutyl)cyclohexyl]carbonyl]amino)phenyl]2-methylpropanethioate]
Atherogenic Index (%) [1, 5]: 54% | Atherogenic Index (%) [1, 4]: 60% | Mean percent change of CETP activity from levels before administration of Compound I [2, 6]: −18.10* % | Decrease in CETP activity relative to levels achieved by pravastatin sodium alone ([2]; 300 mg treatment group): about 18% | Mean percent change of CETP activity from levels before administration of Compound I [2, 7]: −31.62* % | Decrease in CETP activity relative to levels achieved by pravastatin sodium alone ([2]; 600 mg treatment group): about 32% | Mean percent change of HDL-C from levels before administration of Compound I [3, 6]: 12.96* % | Mean percent change of LDL-C from levels before administration of Compound I [3, 6]: 1.57% | Mean percent change of LDL-C/HDL-C ratio from levels before administration of Compound I [3, 6]: −10.31^† % | Mean percent change of TC/HDL-C ratio from levels before administration of Compound I [3, 6]: −8.09^† % | Decrease in LDL-C/HDL-C ratio relative to levels achieved by pravastatin sodium alone [3, 8]: about 10% | Decrease in TC/HDL-C ratio relative to levels achieved by pravastatin sodium alone [3, 8]: about 8% | Increase in HDL-C levels relative to levels achieved by pravastatin sodium alone [3, 8]: about 13% | Mean percent change of HDL-C from levels before administration of Compound I [3, 7]: 28.43* % | Mean percent change of LDL-C from levels before administration of Compound I [3, 7]: −7.91^‡ % | Mean percent change of LDL-C/HDL-C ratio from levels before administration of Compound I [3, 7]: −26.03* % | Mean percent change of TC/HDL-C ratio from levels before administration of Compound I [3, 7]: −18.72* % | Decrease in LDL-C levels relative to level achieved by pravastatin sodium alone [3, 9]: about 8% | Decrease in LDL-C/HDL-C ratio relative to levels achieved by pravastatin sodium alone [3, 9]: about 26% | Decrease in TC/HDL-C ratio relative to levels achieved by pravastatin sodium alone [3, 9]: about 19% | Increase in HDL-C levels relative to levels achieved by pravastatin sodium alone [3, 9]: about 28%

CCC(C)(C)C(=O)O[C@H]1C[C@@H](C)C=C2C=C[C@H](C)[C@H](CC[C@@H]3C[C@@H](O)CC(=O)O3)[C@H]21 [Simvastatin]
Atherogenic Index (%) [1, 5]: 51%

CC(C)c1nc(N(C)S(C)(=O)=O)nc(-c2ccc(F)cc2)c1/C=C/[C@@H](O)C[C@@H](O)CC(=O)[O-].CC(C)c1nc(N(C)S(C)(=O)=O)nc(-c2ccc(F)cc2)c1/C=C/[C@@H](O)C[C@@H](O)CC(=O)[O-].[Ca+2] [Rosuvastatin calcium]
Atherogenic Index (%) [1, 5]: 81%
